Consider one sequence from patent US20250197461A1, “Insect-derived short peptide for improving abscisic acid (ABA) content in cruciferous plant” (Gannan Normal University, priority 2023, published 2025).

The test system of the experiment is Arabidopsis thaliana. In words: Phytohormone detection in Arabidopsis thaliana leaves treated with short peptide (LC-MS/MS). It counts as in vivo. The settings on record: 0.01 mg/mL; for ABA content / JA content: compared with GFP control group. As to the method:
A synthetic short peptide of GSS1-PI with the corresponding concentration and mass was weighed and dissolved in 0.1% DMSO to obtain a 0.01 mg/mL treatment solution. A wild-type Arabidopsis thaliana plant of about four weeks old was taken, two cotyledons were collected and mechanically damaged to obtain three small holes, 2 μL of the GSS1-PI treatment solution was added dropwise into each small hole, while the control group was a solution of the same concentration prepared by synthesizing an unrelated short peptide GFP group (GFP-28aa: […], SEQ ID NO: 20) of the same length. After 24 h and 48 h of treatment, approximately 0.2 g of Arabidopsis thaliana leaves were collected, and each treatment had three biological replicates. The leaves were quickly placed in liquid nitrogen and stored in a −80° C. ultra-low temperature refrigerator for subsequent phytohormone group detection.
• a. The cryopreserved biological samples were ground with a grinder (30 Hz, 1 min) until they were in a powder form. • b. 50 mg of the ground sample was weighed and added with 10 μL of an internal standard mixed solution with a concentration of 100 ng/ml and 1 mL of an extractant including methanol/water/formic acid (15:4:1, v/v/v), and mixed well. • c. After vortexing for 10 min, a resulting mixture was centrifuged at 4° C. and 12,000 r/min for 5 min, and a resulting supernatant was transferred to a new centrifuge tube for concentration. • d. After concentration, the concentrated solution was reconstituted with 100 μL of 80% methanol/water solution, the reconstituted solution was filtered through a 0.22 μm filter, and the filtrate was placed in a sampling bottle for LC-MS/MS analysis.
The data acquisition instrument system mainly included ultra-performance liquid chromatography (UPLC) (ExionLC™ AD, //sciex.com.cn/) and tandem mass spectrometry (MS/MS) (QTRAP® 6500+, //sciex.com.cn/).
Liquid phase conditions mainly included: • 1) Chromatographic column: Waters ACQUITY UPLC HSS T3 C18 column (1.8 μm, 100 mm×2.1 mm i.d.); • 2) Mobile phase: phase A, ultrapure water (added with 0.04% acetic acid); phase B, acetonitrile (added with 0.04% acetic acid); • 3) Gradient elution program: 0 min A/B at 95:5 (V/V), 1.0 min A/B at 95:5 (V/V), 8.0 min at 5:95 (V/V), 9.0 min at 5:95 (V/V), 9.1 min at 95:5 (V/V), 12.0 min at 95:5 (V/V); • 4) Flow rate: 0.35 mL/min; column temperature: 40° C.; injection volume: 2 μL.
Electrospray ionization (ESI) ion source temperature was 550° C., the mass spectrometer voltage in the positive ion mode was 5,500 V, the mass spectrometer voltage in the negative ion mode was-4,500 V, and the curtain gas (CUR) was 35 psi. In the Q-Trap 6500+, each ion transition was scanned based on optimized declustering potential (DP) and collision energy (CE).
The quantificative analysis was accomplished using the multiple reaction monitoring mode (MRM, as shown below) of triple quadrupole mass spectrometry. […] And the non-target ion interference was eliminated, so that the quantification was more accurate and reproducible. After obtaining the mass spectrometry data of different samples, the chromatographic peaks of all target substances were integrated and quantitatively analyzed through the standard curve.

For the sequence “PDYKQKLRDSKAWESLETIGIPLDADVM (insect-derived short peptide) [GSS1-PI]”, where the note is “24 h treatment”, the ABA content result is listed as “increased significantly” and the JA content result is reported as “increased significantly”. For the setting “48 h treatment”, the ABA content result is “upward trend but no significant difference” and the JA content entry is reported as “downward trend”. For the same sequence, under “before and after treatment”, the SA content result is recorded as “no significant change”.
